Laboratory results reported in patent US20260327570A1, “METHOD FOR PRODUCING ORGANOIDS” (Chungnam National University Hospital, priority 2022, published 2026).
pIC50: −log10 of the molar value.

System: lung cancer organoids from lung cancer tissue exhibiting EGFR mutations
Assay: Drug sensitivity test of lung cancer organoids (CellTiter-Glo 3D cell viability; calcein-AM staining)
Format: cell-based, human
Conditions: for AUC (area under the curve) / pIC50: EGFR-mutant lung cancer organoids, six concentrations, drug treatment for 3 days, viability on day 6; for pIC50: Homo sapiens; for sensitivity of lung cancer organoids from EGFR-mutant lung cancer patients: result in words, EGFR-TKIs vs ALK inhibitors, consistent with the clinical response of EGFR-mutant patients
Protocol: The experimental overview is conceptually illustrated in FIG. 12.
The organoids were harvested and mixed with Matrigel (Corning Life Sciences, USA, catalog #354263) and seeded onto pillar plates at 5×10^5 cells/mL. Next, the Matrigel-cell mixture (1.5 μL) was spotted onto the coated pillar plates using a pre-cooled ASFA spotter (Medical & Bio Decision, Suwon, Republic of Korea) and incubated in an inverted position at 4 °C for 15 minutes to allow cells to aggregate at the bottom of the spots. The plates were then placed in humidity chamber at 37 °C to allow the spot to gel. Subsequently, the plates were combined with well plates containing fresh medium. After 3 days, cells were treated with EGFR or ALK targeting agents at six concentrations using the ASFA spotter. Cell viability was measured by staining with 0.5 μM calcein-AM at 37 °C for 1 hour, followed by two PBS washes for 20 minutes. The organoid spots were scanned using an automated optical fluorescence scanner (ASFA scanner, Medical & Bio Decision, Korea) The scanner's microscope automatically focused on cell spots by moving in the z-direction, capturing 384 individual images at 4× magnification from one stained pillar/well plate. The images were then integrated into a single JPEG image for data analysis. The scanned images were analyzed using CellAnalyzer version 2.0 (Medical & Bio Decision). After scanning the cells, the organoid spots were transferred to new 384-well plates containing CellTiter-Glo 3D reagent to measure intracellular ATP levels via luminescence activity.
In brief, a total of 5000 single cells per pillar of the plate were seeded in 1.5 μL medium and cultured for 3 days. Subsequently, various EGFR-TKIs and ALK inhibitors were administered at multiple doses for 3 days to determine IC50 and AUC (area under the curve). On day 6, organoid viability was confirmed using fluorescent dye Calcein-AM (see FIG. 13), and survival rates for each drug were measured using CellTiter-Glo 3D cell viability assay (G9681; Promega) (see FIG. 14).

Compound	AUC (area under the curve)	pIC50	sensitivity of lung cancer organoids from EGFR-mutant lung cancer patients
C[C@@H](Oc1cc(-c2cnn(C3CCNCC3)c2)cnc1N)c1c(Cl)ccc(F)c1Cl [Crizotinib]	177.2	5.15	–
CCc1cc2c(cc1N1CCC(N3CCOCC3)CC1)C(C)(C)c1[nH]c3cc(C#N)ccc3c1C2=O [Alectinib]	240.9	< 4.30	–
CN(C)C/C=C/C(=O)Nc1cc2c(Nc3ccc(F)c(Cl)c3)ncnc2cc1O[C@H]1CCOC1 [Afatinib]	125.1	6.10	showed sensitivity
C=CC(=O)Nc1cc(Nc2nccc(-c3cn(C)c4ccccc34)n2)c(OC)cc1N(C)CCN(C)C [Osimertinib]	133.9	5.74	showed sensitivity
